Source: article PMC6675551, “Mass spectrometry–driven exploration reveals nuances of neoepitope-driven tumor rejection” (JCI Insight, 2019)

Assays:
[1] = tested on: Meth A fibrosarcoma tumor cells; assay: Tumor rejection after immunization with neoepitope-pulsed BMDCs and Meth A challenge; format: in vivo, BALB/cJ mice; settings: for Tumor rejection activity (in words): immunized twice 1 week apart with neoepitope-pulsed BMDCs (3 × 10^6), challenge with 95,000 Meth A cells 1 week later, CTLA4 blockade except TGAARFDEF
Text: The 8 MS-defined neoepitopes were used to immunize naive BALB/cJ mice twice, 1 week apart, with neoepitope-pulsed bone marrow–derived dendritic cells (BMDCs, 3 × 10^6) as adjuvants, as previously published ([22]). All mice were challenged with 95,000 Meth A tumor cells 1 week after the second immunization, and tumor growth was monitored in individual mice (Figure 2, A and B). […] The TCI score parameterizes the tumor rejection, tumor inhibition, and tumor stability scores to produce a total TCI score, which reflects the control of the tumor growth in each group.
Day 7 BMDCs were pulsed with 40 μg of the neoepitope (1 μL of a 20 mM neoepitope solution was added to 7.5 million BMDCs in 200 μL RPMI medium for final peptide concentration of 100 μM). The pulsed BMDCs were washed 4 times and used to immunize a single mouse. Mice were randomized before being used for immunization with individual peptides to control for any cage effects. All immunizations were performed in the presence of CTLA4 blockade, using the […] (clone 9D9, Bio X Cell), administered with the second immunization and every 3 days after tumor challenge except for peptide TGAARFDEF. Tumor diameters were measured in 2 dimensions and the average diameter determined.
TCI quantitates and integrates all 3 aspects of tumor growth: inhibition, period of tumor size stability, and tumor shrinkage (complete response), as published previously ([23]).

[2] = tested on: tetramer+ CD8+ T cells; assay: Tetramer staining of CD8+ T cells in immunized naive non-tumor-bearing mice; format: in vivo, BALB/cJ mice; settings: for CD8+ T cell response by tetramer staining (in words): immunized naive, non-tumor-bearing mice; for Tetramer+ cells of total CD8+ T cells, blood: blood harvested 1 week after second immunization
Protocol: In parallel, naive, non–tumor-bearing mice immunized with the neoepitopes were tested for CD8^+ T cell responses to 7 of the 8 neoepitopes. ELISpot assays could not be performed because of the high background generated by incubation of T cells with any DCs. […] Tetramer staining was therefore used for better sensitivity and specificity (Figure 2D). (Tetramers against the neoepitope MAPVRTASM derived from Aebp1 gene could not be made.) Blood and the spleen of the immunized mice were harvested 1 week after the second immunization and stained for CD3, CD8, as well as specific binding to neoepitope tetramers (Figure 2, D and E). Of the 2 neoepitopes able to strongly elicit tumor rejection (TGAARFDEF and AYMKMLSSSL), only TGAARFDEF elicited a measurable CD8^+ T cell response as detected by tetramer staining. […] Of these, the response elicited by VGPEILSSL (derived from Trib3) was the strongest CD8^+ T cell response among all neoepitopes; approximately 10% of the CD8^+ T cells (in blood) in mice immunized with it were tetramer^+. As controls, we measured, in 2 instances, tetramer response in mice immunized with an irrelevant neoepitope; such nonspecific response was never detected.
(§1) The antibody specific for Fixable Viability Dye eFluor 780 was purchased from eBioscience. PE tetramer specific for each neoepitope was synthesized, validated, and tested by MBL International Corporation. Tetramer testing was performed prior to product release according to standard operating procedures of MBL, and the tetramers were further tested for specificity in our laboratory. The FITC-labeled antibody specific for CD8 (clone KT15) was purchased from the same company. BV510 CD3 (clone 17A2) was purchased from Biolegend. Mouse FcR blocking reagent was purchased from Miltenyi Biotec. Flow cytometry was performed using Miltenyi Biotec MACSQuant analyzer. The analysis was done using FlowJo software (FlowJo LLC).

[3] = tested on: tetramer+ CD8+ T cells; assay: Tetramer staining of CD8+ T cells in non-immunized tumor-bearing mice; format: in vivo, BALB/cJ mice; settings: unimmunized Meth A tumor-bearing mice, blood and spleen
Protocol: Thus, of the 7 neoepitopes tested, 4 neoepitopes elicited expansion of tetramer^+ CD8^+ T cells on immunization of naive, non–tumor-bearing mice (Figure 2E). We now examined CD8^+ T cell responses to the 4 neoepitopes in unimmunized, tumor-bearing mice (Figure 2F). […] As controls, CD8 cells from mice bearing an antigenically irrelevant tumor (4T1) were tested for tetramer response to all 7 neoepitopes; no response was detected. Altogether, CD8^+ T cell responses in non-immunized tumor-bearing mice and immunized tumor-naive mice were often discordant.
as §1

[4] = tested on: Meth A fibrosarcoma tumor cells; assay: CD8 depletion in vivo during priming of neoepitope-immunized mice; parameters: species or system BALB/cJ mice; settings: 250 μg anti-CD8 depleting antibody or isotype control 6 days before first immunization (priming phase)
Protocol: CD8 dependence of neoepitope-elicited tumor immunity was tested in the case of the peptide TGAARFDEF (derived from Gtf2b) by depletion of neoepitope-immunized mice by anti-CD8 depleting antibody or an isotype control antibody during the priming phase alone, as described in the Methods. […] The kinetics of recovery of the depleted CD8^+ cells in mice is not uniform, resulting in lack of abrogation of immunity in 2 of the 5 mice. Because depletion of CD4^+ T cells results in depletion of helper as well as regulatory CD4^+ T cells, and the 2 effects are contradictory, depletion of CD4^+ cells was not attempted.
BALB/cJ mice were injected with 250 μg of isotype control (InVivoMAb rat IgG2b isotype control, Bio X Cell) or CD8-depleting antibody (InVivoMAb anti–mouse CD8α, rat IgG2b, clone 2.43, Bio X Cell) antibodies 6 days before the first immunization (priming phase). The CD8^+ cells remained completely depleted in all mice until day 6; after that the recovery was variable.

[5] = tested on: IFN-γ+ CD8+ cells; assay: IFN-γ+ CD8+ cells from mice immunized with individual peptides; format: in vivo, BALB/cJ mice; settings: data not shown
[6] = neoepitope-pulsed BMDC immunization, 95,000 Meth A cells challenge

AYMKMLSSSL
Immunized mice able to reject the tumor completely [1, 6]: 60% | Immunized mice with relatively prolonged tumor stabilization [1, 6]: 30% | CD8+ T cell response by tetramer staining (in words) [2]: did not elicit a measurable CD8^+ response

IGPRALDVL
Tumor rejection activity (in words) [1]: intermediate tumor rejection | CD8+ T cell response by tetramer staining (in words) [2]: good tetramer CD8^+ T cell response | CD8+ T cell response by tetramer staining (in words) [3]: significant CD8^+ T cell response

IGPRAVDVL [reference compound]
Tumor rejection activity (in words) [1]: intermediate tumor rejection activity | Tetramer+ cells (CD8+ T cell response), tissue not stated ([2]; immunized naive mice, 1 week after second immunization): ~ 0.35%

KYLQVASHV
Tumor rejection activity (in words) [1]: inactive

KYLQVASHVGL
Tumor rejection activity (in words) [1]: did not elicit tumor rejection | CD8+ T cell response by tetramer staining (in words) [2]: strong CD8^+ T cell response | CD8+ T cell response by tetramer staining (in words) [3]: did not elicit such a response

SYLLGSGEARL
Immunized mice able to reject the tumor completely [1, 6]: about 50%

TGAARFDEF
Tumor rejection activity (in words) [1]: complete tumor rejection | CD8 dependence of neoepitope-elicited tumor immunity [4]: completely abolished the neoepitope-elicited tumor rejection in 3 of the 5 mice | Tetramer+ cells of total CD8+ T cells, blood ([2]; immunized naive mice): approximately 0.7% | Tetramer+ cells of total CD8+ T cells, spleen ([2]; immunized naive mice, spleen harvested 1 week after second immunization): ~0.43% | CD8+ T cell response by tetramer staining (in words) [3]: could not detect a measurable CD8^+ T cell response | IFN-γ+ CD8+ cell response [5]: a specific response was detected

VGPEILSSL
Tumor rejection activity (in words) [1]: no tumor rejection | Tetramer+ cells of total CD8+ T cells, blood ([2]; immunized naive mice): approximately 10% | CD8+ T cell response by tetramer staining (in words) [3]: significant CD8^+ T cell response

YIRPFETKVK
Tumor Rejection Score (max score = 5) ([1]; BALB/cJ mice immunized with peptide-pulsed BMDCs, Meth A challenge, Table 2): 4.5
